Patent US8715658B2, “Methods for treating conditions mediated by the inflammatory cytokine cascade using GAPDH inhibitors” (The Feinstein Institute for Medical Research, priority 2009, dated 2014)

Tests used:
RAW264.7 cells = RAW264.7 cells challenged with GAPDH for cytokine (TNF) elicitation, ELISA; type: cell-based, murine; settings: 50 μg/ml GAPDH, 4 hours, FIG. 2
Protocol: Murine macrophage-like RAW264.7 cells were obtained from the American Type Tissue collection (ATTC). The RAW264.7 cells were cultured in Dulbecco's Modified Essential Medium (DMEM) (Gibco) supplemented with 1% heat-inactivated fetal bovine serum (FBS) (BioWhittaker), and 2 mM L-glutamine, and 100 μg/ml penicillin and streptomycin (all from Sigma). Raw264.7 cultures were incubated at 37° C. under 5% CO2. The cells were serum-deprived in 1% FBS medium for the purpose of slowing the cell cycle to synchronize the cell population. Serum deprivation of the cells also limits available growth factors, minimizing the level of intracellular signaling in pathways that lead to the activation of mitogen-activated protein (MAP) kinases. It is interesting to note that immune challenges such as bacterial endotoxin (LPS) also activate MAP kinases to generate inflammatory responses, and thus high levels of FBS would interfere with the detection of MAP kinase signals that are elicited by the specific immune challenges that this study investigates. RAW264.7 cells were used at approximately 70% confluence, and all treatments were carried out in serum-free Opti-MEM I medium.
RAW264.7 cells at approximately 70% confluence were kept in serum-free Opti-MEM I for 20 minutes prior to treatments. […]

Peritoneal macrophages = test: TNF response of peritoneal macrophages from wildtype, TLR2, TLR4 or RAGE deficient mice to GAPDH; type: cell-based; settings: FIG. 3; for TNF release: 50 μg/ml GAPDH
Protocol: Peritoneal macrophages harvested from Wildtype, Toll-like receptor (TLR) 2, TLR4, or Receptor for Advanced Glycation Endproducts (RAGE) deficient mice were resuspended in RPMI1640 medium (Gibco) supplemented with 10% FBS and 2 mM L-glutamine, and 100 μg/ml penicillin and streptomycin, and plated at 1×10^6 cells/well into 24-well Primaria tissue culture plates (Falcon). Cultures were maintained for 24 h at 37° C. under 5% CO2. 30 minutes prior to experimentation, culture medium was replaced by serum free Opti-MEM I medium, and all treatments were conducted in serum free Opti-MEM I medium as described.
RAW264.7 cells at approximately 70% confluence were kept in serum-free Opti-MEM I for 20 minutes prior to treatments. Cells were challenged with a concentration range of purified recombinant GAPDH (produced on site) to determine concentration-dependent responsiveness of inflammatory mediator production. The concentration range consisted of seven concentrations of GAPDH in a five-fold dilution series (50 μg/ml, 10 μg/ml, 2 μg/ml, 0.4 μg/ml, 0.08 μg/ml, 0.016 μg/ml, 0 μg/ml). Cells were incubated at 37° C. and 5% CO2 for 4 hours (TNF). After treatment, the media was harvested and transferred to tubes, and M-cell lysis reagent was applied to the cells. […] The media samples were applied to Enzyme-Linked ImmunoSorbent Assays (ELISA) directed against mouse-TNF (all ELISA reagents were obtained from R+D systems). These ELISA plates were set up and run according to the manufacturer's recommendations. Briefly, samples were incubated overnight in the ELISA plate on a rocker at 4° C. Plates were washed 3× with phosphate-buffered saline supplemented with 0.05% TWEEN-20, and detection antibody diluted at 1:2000 in 1% bovine serum albumin (BSA) was applied to the plates for 2 hours. The plates were washed again as above, and strepavidin-HRP diluted at 1:2000 in 1% BSA was applied to the plates for 15 minutes. The plates were washed again as above, then developed by applying substrate reagent to each well. Reactions were stopped by adding 2M H2SO4 when the standard curve had become obvious, typically 8 to 10 minutes.

IκBα = test: RAW264.7 cells challenged with GAPDH or LPS, IκBα degradation (NF-κB pathway) by Western blot; type: cell-based, murine; settings: 50 μg/ml GAPDH or 20 ng/ml LPS, time-course 0-180 min, FIG. 4
Protocol: (§1) RAW264.7 cells at approximately 70% confluence were kept in serum-free Opti-MEM I for 20 minutes prior to treatments. Cells were challenged with either GAPDH or LPS in a time-course with […] time points (180 min, 120 min, 60 min, 30 min, 15 min, and 0 min). The GAPDH treatment consisted of purified GAPDH diluted to 50 μg/ml in Opti-MEM I. The LPS treatment consisted of LPS (sonicated approximately 30 minutes before use) diluted to 20 ng/ml into Opti-MEM I. Treatments used for time-course experiments were incubated in a 37° C. water bath to maintain culture temperature between time points and sonicated for five minutes before use. […] Bound IκBα antibody was detected using a 1:2000 dilution of HRP-conjugated anti-mouse IgG in 2.5% milk; bound JNK antibody was detected using a 1:2000 dilution of HRP-conjugated anti-rabbit IgG in 2.5% milk. […]
(§2) RAW264.7 macrophage-like cells were challenged with either 50 μg/ml GAPDH or 20 ng/ml LPS in a time-course consisting of six time points ranging from 180 min to 0 min. […] Protein assays were conducted on cell lysates in order to standardize the quantity of protein loaded into each well of SDSPAGE gels for separation. […]

JNK = test: RAW264.7 cells challenged with GAPDH or LPS, JNK activation by Western blot; type: cell-based, murine; settings: 50 μg/ml GAPDH or 20 ng/ml LPS
Protocol: as §1, §2

human whole blood = test: Human whole blood assay, plasma TNF by ELISA; type: cell-based
Protocol: Human whole blood was obtained from anonymous donors from the Long Island Blood Services. The blood was aliquotted into 48-well plates at 250 μl/well. Aliquots were then treated as indicated at 37° C. for four hours. Samples were centrifuged to separate plasma at 5000 rpm for five minutes at room temperature. TNF levels in the plasma were determined by ELISA as described above.
IgG from α-GAPDH #4418 antiserum was purified using protein A/G sepharose (Pierce). Purified IgG was used to test for the ability of α-GAPDH #4418 to neutralize GAPDH activity. Six conditions were tested: GAPDH (10 μg/ml) alone, GAPDH plus non-specific rabbit IgG (100 ug/ml), GAPDH plus α-GAPDH #4418 (100 ug/ml), α-GAPDH #4418 alone, non-specific rabbit IgG alone. The GAPDH plus α-GAPDH #4418 treatment was pre-incubated at room temperature for 30 minutes prior to applying the mixture to the whole blood.

mice = test: GST-GAPDH challenge in mice, clinical sickness scoring; type: in vivo; settings: FIG. 9
cultured macrophages = test: GST-GAPDH on cultured macrophages, inflammatory responses; type: cell-based; settings: FIG. 7

GAPDH: purified recombinant human GAPDH (produced on site), tested as candidate inflammatory cytokine
TNF release (RAW264.7 cells): approximately 2250 pg/mg of cellular protein | TNF release (Peritoneal macrophages; RAGE deficient macrophages): approximately 4500 pg TNF/mg cell protein | TNF release (Peritoneal macrophages; TLR2 deficient macrophages): ~5000 pg TNF/mg cell protein | TNF response (Peritoneal macrophages; TLR4 deficient macrophages): did not mount a significant response | TNF release (Peritoneal macrophages; wild type macrophages): approximately 6000 pg TNF/mg cellular protein | basal level of IκBα (degradation) (IκBα): decreased dramatically and was nearly undetectable by 30 minutes post treatment | increase in activated JNK levels (JNK; 30 minutes after challenge): approximately eight-fold | increase in activated JNK levels (JNK; 60 minutes after challenge): approximately fifteen-fold | plasma TNF levels (human whole blood; 10 μg/ml challenge, four hours, human whole blood, FIG. 5): approximately 450 pg/ml

GST-GAPDH: purified recombinant GST-GAPDH, a stable tetramer
inflammatory cytokine response from human blood (human whole blood; FIG. 8): elicit inflammatory cytokine response | interaction of inflammatory response with LPS (human whole blood; human blood, FIG. 8): synergistic with LPS | sickness by clinical scoring parameters (piloerection, closed eyes, diarrhea, tremoring, activity, relative temperature) (mice): cause sickness | inflammatory responses from cultured macrophages (cultured macrophages): elicits inflammatory responses
